Source: PMC11237774, “On-target, dual aminopeptidase inhibition provides cross-species antimalarial activity” (mBio, 2024)

Key:
Pf3D7 = assay: 72 h ring killing assay (SYBR Green I); type: cell-based, P. falciparum; conditions: Plasmodium falciparum, Pf3D7 ring stage
Protocol: Viability assays were performed as previously described ([7]). Sorbitol-synchronized Pf3D7 (a laboratory strain which is broadly sensitive to standard antimalarial drugs) at ring stages was cultured in the presence of drug serially diluted across a 96-well plate at 0.5% parasitemia and 2% hematocrit. Cultures were grown for 72 h before being placed at −80°C. After thawing, cultures were incubated with equal volumes of lysis buffer (20 mM Tris [pH 7.5], 5 mM EDTA, 0.008% [wt/vol] saponin, and 0.008% [vol/vol] Triton x-100) containing 0.2 µL/mL SYBR Green I Nucleic Acid Gel Stain (10,000× in dimethyl sulfoxide [DMSO]; Thermo Fisher). After 1 h incubation, fluorescence intensity was read on a Glomax Explorer Fully Loaded (Promega) at emission wavelengths of 500–550 nm and an excitation wavelength of 475 nm. Graphs were generated using GraphPad Prism (V.8.4.1). Parasite survival was compared with vehicle-treated cultures in three biological replicates performed in triplicate. This EC50 was used in asexual P. falciparum assays unless otherwise stated.

ERAP1 = target: T1, ERAP1 (Homo sapiens, UniProt Q9NZ08); assay: Recombinant aminopeptidase fluorescence assay (H-Leu-NHMec); type: biochemical; conditions: for inhibition at 1.25 µM: ERAP1, 1.25 µM compound; for inhibition at 10 µM: ERAP1, 10 µM compound; for inhibition at 500 µM: ERAP1, 500 µM compound; for inhibition at 1000 µM: ERAP1, 1000 µM compound
T1 construct: purchased OriGene TP314469
Protocol: (§1) Inhibition of aminopeptidase activity assays were performed against nine aminopeptidases: the M1 alanyl and M17 leucyl aminopeptidases from P. falciparum (PfA-M1; PfA-M17), P. vivax (Pv-M1; Pv-M17), and P. berghei (Pb-M1; Pb-M17), and three human M1 homologs: LTA4H (OriGene TP307617), ERAP1 (OriGene TP314469), and ERAP2 (Creative BioMart ERAP2-304H). The Plasmodium enzymes were produced recombinantly as described previously ([16], [17]), and the human recombinant enzymes were purchased from commercial suppliers as indicated.
(§2) The concentration of H-Leu-NHMec in the assay was held constant for each enzyme and ranged from 10 to 100 µM, depending on the enzyme. Reactions were measured at 37°C in white 384-well plates in a total volume of 25 or 50 µL using a spectrofluorimeter (BMG FLUOstar) with excitation at 355 nm and emission at 460 nm. The fluorescence signal was continuously monitored until a final steady-state velocity, v, was obtained. Inhibition constants were calculated from biological triplicates made from three different protein preparations.
(§3) Substrate concentrations were selected to allow sensitive detection of enzyme activity while not exceeding the Km for each enzyme. A compound concentration range was selected to obtain a complete inhibition curve (0%–100 %) in biological triplicate. Where possible, the Ki values were calculated by plotting the initial rates versus inhibitor concentration and fitting to the Morrison equation for tight-binding inhibitors in GraphPad Prism (V.8.4.1; non-linear regression method).

ERAP2 = target: T2, ERAP2 (Homo sapiens, UniProt Q6P179); assay: as above; type: biochemical; conditions: for inhibition at 1.25 µM: ERAP2, 1.25 µM compound; for inhibition at 10 µM: ERAP2, 10 µM compound; for inhibition at 500 µM: ERAP2, 500 µM compound; for inhibition at 1000 µM: ERAP2, 1000 µM compound
T2 construct: purchased Creative BioMart ERAP2-304H
Protocol: as §1, §2, §3

[1] = target: T3, human leukotriene A4 hydrolase (LTA4H) (Homo sapiens, UniProt P09960); assay: Recombinant aminopeptidase fluorescence assay (H-Ala-NHMec); type: biochemical; conditions: for inhibition at 1.25 µM: 1.25 µM compound; for inhibition at 10 µM: 10 µM compound; for inhibition at 500 µM: 500 µM compound; for inhibition at 1000 µM: 1000 µM compound
T3 construct: purchased OriGene TP307617
T3 sequence (P09960 1-611): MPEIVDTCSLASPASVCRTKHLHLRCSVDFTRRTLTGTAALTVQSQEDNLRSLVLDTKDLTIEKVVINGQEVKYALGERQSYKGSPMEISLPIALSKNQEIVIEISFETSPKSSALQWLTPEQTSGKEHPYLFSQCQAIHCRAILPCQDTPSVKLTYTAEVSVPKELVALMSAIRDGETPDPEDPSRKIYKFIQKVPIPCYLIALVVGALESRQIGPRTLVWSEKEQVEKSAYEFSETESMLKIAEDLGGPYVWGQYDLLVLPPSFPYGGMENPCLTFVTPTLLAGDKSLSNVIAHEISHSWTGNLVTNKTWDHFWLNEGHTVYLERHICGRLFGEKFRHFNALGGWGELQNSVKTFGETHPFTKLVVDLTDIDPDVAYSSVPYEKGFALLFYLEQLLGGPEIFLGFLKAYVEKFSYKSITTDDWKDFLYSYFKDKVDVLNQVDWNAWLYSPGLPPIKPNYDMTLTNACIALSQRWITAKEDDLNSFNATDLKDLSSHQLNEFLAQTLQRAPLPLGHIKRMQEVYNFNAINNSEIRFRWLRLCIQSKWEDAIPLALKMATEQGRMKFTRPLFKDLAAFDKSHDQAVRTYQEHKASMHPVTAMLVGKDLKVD
Protocol: as §1
as §2, with “Reactions” for “The concentration of H-Leu-NHMec in the assay was held constant for each enzyme and ranged from 10 to 100 µM, depending on the enzyme. Reactions”
as §3

[2] = system: PfNF54-s16-GFP mature (V) stage gametocytes; assay: Image-based gametocyte viability assay; type: cell-based, P. falciparum; conditions: Plasmodium falciparum, 72 h, read-out: IC50 Mature-stage Gametocytes (mean ± SD)
Protocol: (§4) Viability assays were performed as described previously ([32], [33]) against PfNF54-s16-GFP early(I–III), late (IV–V), and mature (V) stage gametocytes. Gametocytes were assessed at the appropriate time points following gametogenesis; early stage (day 2), late stage (day 8), and mature stage (day 12). Compounds diluted in 4% DMSO were transferred into 384-well imaging plates; gametocytes prepared as described previously (35) were added, and plates were incubated for 72 h in 5% CO2, 5% O2, and 60% humidity at 37°C. After 72 h incubation, 5 µL of MitoTracker Red CMH2XRos in phosphate buffered saline (PBS) was added per well, and plates were incubated overnight. Image acquisition and analysis were undertaken on the Opera QEHS micro-plate confocal imaging system. An Acapella-based script using the CMH2XRos fluorescent signal and the GFP-designated object quantifying viable stage-dependent parasite morphology identified gametocytes. Gametocyte viability was calculated as a percentage of the positive (5 µM puromycin) and negative (0.4% DMSO) controls. IC50 values were calculated using a 4-parameter log dose, non-linear regression analysis, with sigmoidal dose response (variable slope) curve fit using GraphPad Prism (ver 4.0). No constraints were used in the curve fit. […] Experiments were performed as two or three biological replicates in duplicate.

[3] = system: PfNF54-s16-GFP late (IV–V) stage gametocytes; assay: Image-based gametocyte viability assay; type: cell-based, P. falciparum; conditions: Plasmodium falciparum; stages IV–V, 72 h; read-out: IC50 Late-stage Gametocytes (mean ± SD)
Protocol: as §4

T2 sequence (Q6P179 whole entry): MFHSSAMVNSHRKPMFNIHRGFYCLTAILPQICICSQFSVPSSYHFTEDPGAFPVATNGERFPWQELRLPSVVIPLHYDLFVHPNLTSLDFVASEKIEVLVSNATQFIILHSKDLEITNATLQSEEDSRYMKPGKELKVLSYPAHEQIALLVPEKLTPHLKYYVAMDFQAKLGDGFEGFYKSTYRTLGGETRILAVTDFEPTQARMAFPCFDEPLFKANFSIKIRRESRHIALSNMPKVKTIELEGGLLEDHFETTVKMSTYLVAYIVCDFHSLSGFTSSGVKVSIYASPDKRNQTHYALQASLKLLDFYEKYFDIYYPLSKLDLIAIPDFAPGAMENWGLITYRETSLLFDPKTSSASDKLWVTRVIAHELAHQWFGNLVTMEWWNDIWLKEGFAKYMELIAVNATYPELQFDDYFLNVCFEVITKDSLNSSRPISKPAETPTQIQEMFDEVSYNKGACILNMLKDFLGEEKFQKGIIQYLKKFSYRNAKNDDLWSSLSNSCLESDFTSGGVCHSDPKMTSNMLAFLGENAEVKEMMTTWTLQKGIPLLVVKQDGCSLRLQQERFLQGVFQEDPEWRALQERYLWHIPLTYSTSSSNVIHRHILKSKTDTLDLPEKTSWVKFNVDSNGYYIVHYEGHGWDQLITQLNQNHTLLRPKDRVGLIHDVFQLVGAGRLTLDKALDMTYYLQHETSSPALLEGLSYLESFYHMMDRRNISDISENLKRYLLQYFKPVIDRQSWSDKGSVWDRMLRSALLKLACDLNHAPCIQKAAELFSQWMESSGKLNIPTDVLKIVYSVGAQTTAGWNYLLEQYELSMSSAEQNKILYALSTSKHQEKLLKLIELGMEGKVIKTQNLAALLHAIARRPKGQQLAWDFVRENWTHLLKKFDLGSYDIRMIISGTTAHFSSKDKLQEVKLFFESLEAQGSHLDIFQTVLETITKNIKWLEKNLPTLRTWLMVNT
T1 sequence (Q9NZ08 whole entry): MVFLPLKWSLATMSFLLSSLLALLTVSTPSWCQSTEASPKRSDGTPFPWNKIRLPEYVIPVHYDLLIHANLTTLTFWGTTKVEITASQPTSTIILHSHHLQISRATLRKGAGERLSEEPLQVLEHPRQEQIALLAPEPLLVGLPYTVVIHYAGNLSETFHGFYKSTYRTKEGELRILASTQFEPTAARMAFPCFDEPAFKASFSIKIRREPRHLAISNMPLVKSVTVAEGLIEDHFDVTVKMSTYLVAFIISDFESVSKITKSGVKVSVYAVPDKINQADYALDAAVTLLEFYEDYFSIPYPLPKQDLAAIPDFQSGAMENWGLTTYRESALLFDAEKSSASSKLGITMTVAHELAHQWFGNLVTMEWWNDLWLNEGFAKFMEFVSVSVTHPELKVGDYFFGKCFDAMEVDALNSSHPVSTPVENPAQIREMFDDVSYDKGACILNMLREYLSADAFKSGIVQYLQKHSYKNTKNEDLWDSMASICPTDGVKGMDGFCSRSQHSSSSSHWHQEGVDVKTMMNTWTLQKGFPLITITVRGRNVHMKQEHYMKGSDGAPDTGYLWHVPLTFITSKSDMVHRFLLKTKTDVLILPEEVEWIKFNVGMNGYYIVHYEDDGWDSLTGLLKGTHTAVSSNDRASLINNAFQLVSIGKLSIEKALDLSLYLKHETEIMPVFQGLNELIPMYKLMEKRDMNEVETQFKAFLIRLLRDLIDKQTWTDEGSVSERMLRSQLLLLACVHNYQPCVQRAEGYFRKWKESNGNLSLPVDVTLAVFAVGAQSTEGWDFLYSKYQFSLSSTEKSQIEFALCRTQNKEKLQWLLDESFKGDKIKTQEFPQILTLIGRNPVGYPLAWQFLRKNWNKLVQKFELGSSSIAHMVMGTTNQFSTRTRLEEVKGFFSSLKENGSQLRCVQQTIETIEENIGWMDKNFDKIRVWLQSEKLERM

C[C@H]1[C@H](OC(=O)CCC(=O)O)O[C@@H]2O[C@@]3(C)CC[C@H]4[C@H](C)CC[C@@H]1[C@@]24OO3 [artesunate]
EC50 (Pf3D7): 4 nM | inhibition at 1.25 µM (ERAP1): 0% | inhibition at 10 µM (ERAP1): 0% | inhibition at 500 µM (ERAP1): 0% | inhibition at 1000 µM (ERAP1): 0% | inhibition at 1.25 µM (ERAP2): 0% | inhibition at 10 µM (ERAP2): 0% | inhibition at 500 µM (ERAP2): 0% | inhibition at 1000 µM (ERAP2): 0% | inhibition at 1.25 µM [1]: 0% | inhibition at 10 µM [1]: 12.8% | inhibition at 500 µM [1]: 20.2% | inhibition at 1000 µM [1]: 36% | IC50 [2]: 51 ± 23 nM | IC50 [3]: 26 ± 2 nM

CC(C)(C)CC(=O)NC(C(=O)NO)c1ccc(-c2cc(F)c(F)c(F)c2)cc1 (stereo not drawn) [MMV1557817, N-(2-(hydroxyamino)−2-oxo-1-(3′,4′,5′-trifluoro-[1,1′-biphenyl]-4-yl)ethyl)-3,3-dimethylbutanamide]
EC50 (Pf3D7): 39 nM | inhibition at 1.25 µM (ERAP1): 0% | inhibition at 10 µM (ERAP1): 0% | inhibition at 500 µM (ERAP1): 75% | inhibition at 1000 µM (ERAP1): 98% | inhibition at 1.25 µM (ERAP2): 7% | inhibition at 10 µM (ERAP2): 0% | inhibition at 500 µM (ERAP2): 99.1% | inhibition at 1000 µM (ERAP2): 100% | inhibition at 1.25 µM [1]: 18% | inhibition at 10 µM [1]: 16% | inhibition at 500 µM [1]: 71% | inhibition at 1000 µM [1]: 87% | IC50 [2]: 1470 nM | IC50 [3]: 309 nM
